Assay [1] has as its system HeLa-ACE2 cells. Put plainly: SARS2-PsV-induced PS externalization in HeLa-ACE2 cells. The format is cell-based. The following applies: for SARS2-PsV-induced PS externalization: 1 h.
Assay [2] relates to HeLa-ACE2 cells. The assay is described as follows: Authentic SARS-CoV-2-induced PS externalization in HeLa-ACE2 cells. The format is cell-based. Particulars: 10 μM; 1 h pretreatment; 10 MOI.
Assay [3] relates to HEK 293T-ACE2-TMPRSS2 cells. The assay is described as follows: SARS2-PsV-induced cytosolic Ca2+ signals. The format is cell-based. The following applies: pretreatment: BAPTA-AM 3 μM, camostat 10 μM, A6-001 10 μM.
The subject of assay [4] is SARS-CoV-2 Spike pseudotyped virus (SARS2-PsV). Put plainly: microbe, parasite or virus in culture. Type of assay: cell-based. Particulars: BAPTA-AM 10 μM.
Assay [5] relates to endogenous Cl- currents in HEK 293 cells. Particulars: ref Braga et al., 2021; cited from earlier work.
Assay [6] relates to cytosolic Ca2+ signals. The following applies: ref Braga et al., 2021; cited from earlier work.
For the next assay, the target named is T1, human ANO6 (Homo sapiens, UniProt Q4KMQ2).
T1 sequence (Q4KMQ2 1-931 isoform Q4KMQ2-2): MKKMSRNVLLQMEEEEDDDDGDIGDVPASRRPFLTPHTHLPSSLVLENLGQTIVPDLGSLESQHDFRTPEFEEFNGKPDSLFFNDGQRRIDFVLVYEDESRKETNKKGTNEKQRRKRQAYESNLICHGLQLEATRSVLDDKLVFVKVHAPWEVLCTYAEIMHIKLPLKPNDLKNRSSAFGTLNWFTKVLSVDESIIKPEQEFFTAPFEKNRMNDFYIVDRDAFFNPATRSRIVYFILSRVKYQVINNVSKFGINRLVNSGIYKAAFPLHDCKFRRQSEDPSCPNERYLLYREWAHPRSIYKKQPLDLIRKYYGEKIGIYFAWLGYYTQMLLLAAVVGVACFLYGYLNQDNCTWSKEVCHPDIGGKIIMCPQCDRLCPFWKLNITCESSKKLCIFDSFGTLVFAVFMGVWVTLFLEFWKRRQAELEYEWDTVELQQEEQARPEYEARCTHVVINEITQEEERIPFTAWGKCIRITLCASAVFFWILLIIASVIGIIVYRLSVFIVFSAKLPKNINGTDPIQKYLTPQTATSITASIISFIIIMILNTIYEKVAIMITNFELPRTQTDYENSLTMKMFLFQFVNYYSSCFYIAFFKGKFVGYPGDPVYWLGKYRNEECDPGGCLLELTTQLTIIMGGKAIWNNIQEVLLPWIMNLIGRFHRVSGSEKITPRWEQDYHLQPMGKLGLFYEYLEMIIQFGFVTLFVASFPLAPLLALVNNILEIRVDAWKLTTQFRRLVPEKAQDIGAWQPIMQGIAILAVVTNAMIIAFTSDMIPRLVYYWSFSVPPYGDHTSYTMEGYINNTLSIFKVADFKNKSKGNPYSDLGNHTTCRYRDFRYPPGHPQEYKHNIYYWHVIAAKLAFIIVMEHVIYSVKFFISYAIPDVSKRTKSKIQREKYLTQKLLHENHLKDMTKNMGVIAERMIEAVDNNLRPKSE
Put plainly: YFP fluorescence quenching-based anion channel assay, FRT-ANO6 cells. Type of assay: cell-based. Particulars: ANO1, ANO2 and ANO6.

Assay [7] has as its system cytosolic Ca2+ signals. The assay is described as follows: Ionomycin-induced cytosolic Ca2+ signals. Type of assay: cell-based. The following applies: at 30 μM.
In assay [8] the test system is PS scrambling induced by ionomycin. Put plainly: Ionomycin-induced PS scrambling, camostat control. Type of assay: cell-based. Particulars: camostat 100 μM, 1 h prior; ionomycin 10 μM, 10 min.
A further assay has as its system SARS-CoV-2. Particulars: HeLa-ACE2 cells; ref Shang et al., 2020; cited from earlier work.

Molecules are shown by their SMILES. “Also recorded” adds a separate entry of the source. Structures can show the parent of a compound that is named as a salt.

As to `CC(=O)OCOC(=O)CN(CC(=O)OCOC(C)=O)c1ccccc1OCCOc1ccccc1N(CC(=O)OCOC(C)=O)CC(=O)OCOC(C)=O` [BAPTA-AM, reference compound], in the assay with HeLa-ACE2 cells [1] (10 μM), the “SARS2-PsV-induced PS externalization” value is “nullified; also recorded: inhibits”. Moreover, in the assay on HeLa-ACE2 cells [2], the “authentic SARS-CoV-2 virus-evoked PS scrambling” value is listed as “suppressed”. In assay [3], the “SARS2-PsV-induced cytosolic Ca2+ signals” value is recorded as “nullified”. The “single-round infection of SARS2-PsV” value in assay [4] is “significantly reduced”.

Consider `O=C(Nc1ccc([N+](=O)[O-])cc1Cl)c1cc(Cl)ccc1O` [niclosamide], for which the “endogenous Cl- currents / Cl- channel activities” value in [5] was “partial inhibitory effect”. In addition, in the assay with cytosolic Ca2+ signals [6], the “cytosolic Ca2+ signals” value was “reduced”.

Regarding `CC[C@@H](C(=O)[C@@H](C)[C@@H](O)[C@H](C)[C@@H]1O[C@@H]([C@@H](CC)C(=O)O)CC[C@@H]1C)[C@H]1O[C@]2(C=C[C@@H](O)[C@]3(CC[C@@](C)([C@H]4CC[C@](O)(CC)[C@H](C)O4)O3)O2)[C@H](C)C[C@@H]1C` [salinomycin], in assay [5], the “endogenous Cl- currents / Cl- channel activities” value is “did not affect”.

Take `CCOC(=O)c1c(NCc2ccc(SC)cc2)c2cccc(C)c2[nH]c1=O` [A6-004, ethyl 8-methyl-4-((4-(methylthio)benzyl)amino)-2-oxo-1,2-dihydroquinoline-3-carboxylate]: on human ANO6, the “IC50 on all examined ANOs” value is “micromolar ranges”. For the same compound, the “ionomycin-induced cytosolic Ca2+ signals” value in the assay with cytosolic Ca2+ signals [7] is recorded as “partially reduced”. Moreover, in the assay on HeLa-ACE2 cells [1] (10 μM), the “SARS2-PsV-induced PS externalization” value is “strongly inhibited; also recorded: inhibit”.

On to `CN(C)C(=O)COC(=O)Cc1ccc(OC(=O)c2ccc(NC(=N)N)cc2)cc1` [camostat, camostat mesylate, reference compound], for which, in the assay with HeLa-ACE2 cells [1] (100 μM), the “SARS2-PsV-induced PS externalization” value is reported as “reduced; also recorded: inhibits”. In addition, in the assay on HeLa-ACE2 cells [1] (trypsin 10 μg/mL, 10 min, 37°C), the “PS externalization evoked by trypsin-pretreated SARS2-PsV” value is “but not by trypsinized SARS2-PsV”. Further, the “SARS2-PsV-induced cytosolic Ca2+ signals” value in [3] was “significantly reduced”. Besides, in [8], the “PS scrambling induced by ionomycin” value is on record as “did not affect”. Also, the SARS-CoV-2 cell entry result in the assay on SARS-CoV-2 is reported as “inhibits”.

`CC(C)/N=c1\cc2n(-c3ccc(Cl)cc3)c3ccccc3nc-2cc1Nc1ccc(Cl)cc1` [clofazimine]: the “endogenous Cl- currents / Cl- channel activities” value in assay [5] is reported as “did not affect”.

Source of the values: paper PMC9250890 (Cell Reports, 2022).
